HELM strings list units from the 5' end as sugar, base in round brackets, then linkage (d deoxyribose, r ribose, m 2'-O-methyl, p phosphodiester). Strings are as the collection lists them; they lack the last nucleoside at the 3' end of the tested compound. [moe] = 2'-O-(2-methoxyethyl) (MOE); [sp] = phosphorothioate linkage; [m5C] = 5-methylcytosine

These results are taken from the OligoGym collection.

This data set concerns the target PRNP. The data set is described as follows: mouse, dose not given. As to conditions: ASO.

Regarding “RNA1{[moe]([m5C])[sp].[moe](A)p.[moe](G)p.[moe](T)p.[moe](G)[sp].d(T)[sp].d(T)[sp].d([m5C])[sp].d([m5C])[sp].d(A)[sp].d(T)[sp].d([m5C])[sp].d([m5C])[sp].d(T)[sp].d([m5C])[sp].[moe]([m5C])p.[moe](A)p.[moe](G)[sp].[moe](G)}$$$$ (last 3' nucleoside missing)”, the 3 h FOB score came to 1 score 0-7.

The substance “RNA1{[moe]([m5C])[sp].[moe](A)p.[moe](G)p.[moe](T)p.[moe](T)[sp].d(T)[sp].d(T)[sp].d(T)[sp].d([m5C])[sp].d([m5C])[sp].d([m5C])[sp].d([m5C])[sp].d(A)[sp].[moe]([m5C])p.[moe](A)p.[moe](T)[sp].[moe](A)}$$$$ (last 3' nucleoside missing)” registered a 3 h FOB score of 0 score 0-7.

The substance “RNA1{[moe]([m5C])[sp].[moe](A)p.[moe](T)p.[moe](T)p.[moe](T)[sp].d(G)[sp].d(A)[sp].d(T)[sp].d(T)[sp].d(T)[sp].d([m5C])[sp].d(A)[sp].d(A)[sp].d(G)[sp].d(T)[sp].[moe]([m5C])p.[moe]([m5C])p.[moe]([m5C])[sp].[moe](A)}$$$$ (last 3' nucleoside missing)” gave a 3 h FOB score of 3 score 0-7.

Substance “RNA1{[moe]([m5C])[sp].[moe](A)p.[moe]([m5C])p.[moe](A)p.[moe]([m5C])p.d(T)[sp].d(G)[sp].d(A)[sp].d([m5C])[sp].d([m5C])[sp].d(A)[sp].d(T)[sp].d(T)[sp].d(T)[sp].[moe](T)p.[moe](T)p.[moe](T)[sp].[moe](A)}$$$$ (last 3' nucleoside missing)” showed a 3 h FOB score of 0 score 0-7.

The substance “RNA1{[moe]([m5C])[sp].[moe](G)[sp].[moe](T)p.[moe]([m5C])p.[moe]([m5C])p.[moe](A)p.[moe](T)p.d(T)[sp].d(T)[sp].d(T)[sp].d([m5C])[sp].d(T)[sp].d(G)[sp].d(T)[sp].d(G)[sp].d([m5C])[sp].d(T)[sp].[moe](T)p.[moe](T)}$$$$ (last 3' nucleoside missing)” registered a 3 h FOB score of 5.5 score 0-7.

Substance “RNA1{[moe]([m5C])[sp].[moe](G)p.[moe](G)p.[moe](G)p.[moe](T)[sp].d(T)[sp].d(T)[sp].d(T)[sp].d([m5C])[sp].d(T)[sp].d(T)[sp].d(A)[sp].d(A)[sp].d(A)[sp].d(A)[sp].[moe](T)p.[moe](G)p.[moe](G)[sp].[moe](A)}$$$$ (last 3' nucleoside missing)” showed a 3 h FOB score of 2 score 0-7.

In the case of “RNA1{[moe]([m5C])[sp].[moe](G)p.[moe](T)p.[moe](T)p.[moe](G)[sp].d(T)[sp].d(T)[sp].d(G)[sp].d(A)[sp].d(T)[sp].d(T)[sp].d(T)[sp].d(T)[sp].d(T)[sp].d([m5C])[sp].[moe]([m5C])p.[moe](A)p.[moe](G)[sp].[moe](A)}$$$$ (last 3' nucleoside missing)”, the 3 h FOB score is 1.75 score 0-7.

As to “RNA1{[moe]([m5C])[sp].[moe](G)p.[moe](T)p.[moe](T)p.[moe]([m5C])[sp].d(A)[sp].d(T)[sp].d([m5C])[sp].d(T)[sp].d(T)[sp].d(A)[sp].d(T)[sp].d(T)[sp].d([m5C])[sp].d([m5C])[sp].[moe]([m5C])p.[moe](A)p.[moe](T)[sp].[moe](T)}$$$$ (last 3' nucleoside missing)”, the 3 h FOB score amounted to 1 score 0-7.

The substance “RNA1{[moe]([m5C])[sp].[moe](G)p.[moe](T)p.[moe]([m5C])p.[moe]([m5C])p.[moe](A)p.d(T)[sp].d(T)[sp].d(T)[sp].d(T)[sp].d([m5C])[sp].d(T)[sp].d(G)[sp].d(T)[sp].d(G)[sp].d([m5C])[sp].[moe](T)p.[moe](T)[sp].[moe](T)}$$$$ (last 3' nucleoside missing)” came in with a 3 h FOB score of 6.25 score 0-7.

In turn, “RNA1{[moe]([m5C])[sp].[moe](G)p.[moe](T)p.[moe]([m5C])p.d([m5C])[sp].d(A)[sp].d(T)[sp].d(T)[sp].d(T)[sp].d(T)[sp].d([m5C])[sp].d(T)[sp].d(G)[sp].d(T)[sp].[moe](G)p.[moe]([m5C])p.[moe](T)p.[moe](T)[sp].[moe](T)}$$$$ (last 3' nucleoside missing)” returned a 3 h FOB score of 3 score 0-7.

As to “RNA1{[moe]([m5C])[sp].[moe](G)p.[moe](T)p.d([m5C])[sp].d([m5C])[sp].d(A)[sp].d(T)[sp].d(T)[sp].d(T)[sp].d(T)[sp].d([m5C])[sp].d(T)[sp].d(G)[sp].[moe](T)p.[moe](G)p.[moe]([m5C])p.[moe](T)p.[moe](T)[sp].[moe](T)}$$$$ (last 3' nucleoside missing)”, the 3 h FOB score was determined as 0 score 0-7.

“RNA1{[moe]([m5C])[sp].[moe](T)[sp].[moe](A)p.[moe](T)p.[moe](G)p.[moe](T)p.[moe](T)p.d(T)[sp].d(T)[sp].d([m5C])[sp].d([m5C])[sp].d(A)[sp].d(G)[sp].d(T)[sp].d(G)[sp].d([m5C])[sp].d([m5C])[sp].[moe]([m5C])p.[moe](A)}$$$$ (last 3' nucleoside missing)” gave a 3 h FOB score of 4.75 score 0-7.

On to “RNA1{[moe]([m5C])[sp].[moe](T)[sp].[moe]([m5C])p.[moe](T)p.[moe](A)p.[moe](T)p.[moe](G)p.d(T)[sp].d(T)[sp].d(T)[sp].d(T)[sp].d([m5C])[sp].d([m5C])[sp].d(A)[sp].d(G)[sp].d(T)[sp].d(G)[sp].[moe]([m5C])p.[moe]([m5C])}$$$$ (last 3' nucleoside missing)”, for which the 3 h FOB score was 6 score 0-7.

In turn, “RNA1{[moe]([m5C])[sp].[moe](T)p.[moe](A)p.[moe](G)p.[moe](T)[sp].d(A)[sp].d(A)[sp].d(G)[sp].d(A)[sp].d(A)[sp].d([m5C])[sp].d(T)[sp].d(T)[sp].d(A)[sp].d(T)[sp].[moe]([m5C])p.[moe]([m5C])p.[moe]([m5C])[sp].[moe](A)}$$$$ (last 3' nucleoside missing)” registered a 3 h FOB score of 0 score 0-7.

As to “RNA1{[moe]([m5C])[sp].[moe](T)p.[moe](A)p.[moe](T)p.[moe](G)[sp].d(A)[sp].d(T)[sp].d(G)[sp].d(A)[sp].d(T)[sp].d(G)[sp].d(G)[sp].d(T)[sp].d(G)[sp].d([m5C])[sp].[moe](T)p.[moe](T)p.[moe](T)[sp].[moe]([m5C])}$$$$ (last 3' nucleoside missing)”, the 3 h FOB score was found to be 6 score 0-7.

In turn, “RNA1{[moe]([m5C])[sp].[moe](T)p.[moe](A)p.[moe](T)p.[moe](G)[sp].d(T)[sp].d(T)[sp].d(T)[sp].d(T)[sp].d([m5C])[sp].d([m5C])[sp].d(A)[sp].d(G)[sp].[moe](T)p.[moe](G)p.[moe]([m5C])[sp].[moe]([m5C])}$$$$ (last 3' nucleoside missing)” had a 3 h FOB score of 0 score 0-7.

“RNA1{[moe]([m5C])[sp].[moe](T)p.[moe](A)p.[moe](T)p.[moe](G)[sp].d(T)[sp].d(T)[sp].d(T)[sp].d(T)[sp].d([m5C])[sp].d([m5C])[sp].d(A)[sp].d(G)[sp].d(T)[sp].d(G)[sp].[moe]([m5C])p.[moe]([m5C])p.[moe]([m5C])[sp].[moe](A)}$$$$ (last 3' nucleoside missing)” had a 3 h FOB score of 3 score 0-7.

Consider “RNA1{[moe]([m5C])[sp].[moe](T)p.[moe](A)p.[moe](T)p.[moe](G)p.[moe](T)p.d(T)[sp].d(T)[sp].d(T)[sp].d([m5C])[sp].d([m5C])[sp].d(A)[sp].d(G)[sp].d(T)[sp].d(G)[sp].d([m5C])[sp].[moe]([m5C])p.[moe]([m5C])[sp].[moe](A)}$$$$ (last 3' nucleoside missing)”, for which the 3 h FOB score stood at 3.75 score 0-7.

The substance “RNA1{[moe]([m5C])[sp].[moe](T)p.[moe](A)p.[moe](T)p.[moe](G)p.d(T)[sp].d(T)[sp].d(T)[sp].d(T)[sp].d([m5C])[sp].d([m5C])[sp].d(A)[sp].d(G)[sp].d(T)[sp].[moe](G)[sp].[moe]([m5C])p.[moe]([m5C])p.[moe]([m5C])}$$$$ (last 3' nucleoside missing)” registered a 3 h FOB score of 0.75 score 0-7.

Regarding “RNA1{[moe]([m5C])[sp].[moe](T)p.[moe](A)p.[moe](T)p.[moe](G)p.d(T)[sp].d(T)[sp].d(T)[sp].d(T)[sp].d([m5C])[sp].d([m5C])[sp].d(A)[sp].d(G)[sp].d(T)[sp].[moe](G)p.[moe]([m5C])p.[moe]([m5C])[sp].[moe]([m5C])}$$$$ (last 3' nucleoside missing)”, the 3 h FOB score stood at 1 score 0-7.

“RNA1{[moe]([m5C])[sp].[moe](T)p.[moe](A)p.[moe](T)p.d(G)[sp].d(T)[sp].d(T)[sp].d(T)[sp].d(T)[sp].d([m5C])[sp].d([m5C])[sp].d(A)[sp].d(G)[sp].d(T)[sp].[moe](G)p.[moe]([m5C])p.[moe]([m5C])p.[moe]([m5C])[sp].[moe](A)}$$$$ (last 3' nucleoside missing)”: the 3 h FOB score came to 1.25 score 0-7.

The substance “RNA1{[moe]([m5C])[sp].[moe](T)p.[moe](A)p.d(T)[sp].d(G)[sp].d(T)[sp].d(T)[sp].d(T)[sp].d(T)[sp].d([m5C])[sp].d([m5C])[sp].d(A)[sp].d(G)[sp].[moe](T)p.[moe](G)p.[moe]([m5C])p.[moe]([m5C])p.[moe]([m5C])[sp].[moe](A)}$$$$ (last 3' nucleoside missing)” had a 3 h FOB score of 0.25 score 0-7.

For “RNA1{[moe]([m5C])[sp].[moe](T)p.[moe](G)p.[moe](G)p.[moe](T)[sp].d(G)[sp].d(A)[sp].d(T)[sp].d(T)[sp].d(T)[sp].d(T)[sp].d(T)[sp].d(T)[sp].d([m5C])[sp].d([m5C])[sp].[moe](T)p.[moe](T)p.[moe](T)[sp].[moe]([m5C])}$$$$ (last 3' nucleoside missing)”, the 3 h FOB score was found to be 0 score 0-7.

For “RNA1{[moe]([m5C])[sp].[moe](T)p.[moe](G)p.[moe](T)p.[moe](T)[sp].d(A)[sp].d(T)[sp].d(G)[sp].d(T)[sp].d(T)[sp].d(A)[sp].d(T)[sp].d(T)[sp].d(A)[sp].d(T)[sp].[moe](T)p.[moe](G)p.[moe](T)[sp].[moe](T)}$$$$ (last 3' nucleoside missing)”, the 3 h FOB score was 3.75 score 0-7.

“RNA1{[moe]([m5C])[sp].[moe](T)p.[moe](G)p.[moe](T)p.[moe](T)[sp].d(G)[sp].d([m5C])[sp].d(A)[sp].d([m5C])[sp].d(T)[sp].d(A)[sp].d(A)[sp].d(G)[sp].d(T)[sp].d([m5C])[sp].[moe]([m5C])p.[moe](A)p.[moe](A)[sp].[moe](A)}$$$$ (last 3' nucleoside missing)” returned a 3 h FOB score of 1 score 0-7.
